Patent publication US12421210B2, “Fused bicyclic heterocycles as therapeutic agents” (NEW YORK UNIVERSITY, priority 2018, dated 2025)
Read-outs that look alike come from different tables or passages of the source.

Target: human NAMPT enzyme (His-hNAMPT) (Homo sapiens (Human), UniProt P43490)
Assay: NAMPT enzymatic inhibition assay (fluorescence, NADH product)
Type: biochemical
[1] = [BPS], read-out: NAMPT IC50 (μM) [BPS]

human NAMPT enzyme (His-hNAMPT), sequence (P43490 whole entry): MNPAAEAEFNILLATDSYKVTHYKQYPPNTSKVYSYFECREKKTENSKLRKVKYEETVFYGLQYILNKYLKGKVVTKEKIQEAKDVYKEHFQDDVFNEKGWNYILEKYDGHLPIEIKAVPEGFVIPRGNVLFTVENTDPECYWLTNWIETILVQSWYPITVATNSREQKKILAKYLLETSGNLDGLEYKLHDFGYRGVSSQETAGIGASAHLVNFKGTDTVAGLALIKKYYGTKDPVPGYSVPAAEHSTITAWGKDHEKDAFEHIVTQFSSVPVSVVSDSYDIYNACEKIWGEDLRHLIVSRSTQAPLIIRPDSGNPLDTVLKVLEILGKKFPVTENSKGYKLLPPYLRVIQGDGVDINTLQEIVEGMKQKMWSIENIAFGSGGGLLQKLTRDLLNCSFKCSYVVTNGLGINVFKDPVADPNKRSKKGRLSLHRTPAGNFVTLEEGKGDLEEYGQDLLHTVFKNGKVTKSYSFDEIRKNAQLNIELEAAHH

| Compound | IC50 [1] | IC50 ([HDB], read-out: NAMPT IC50 (μM) [HDB]) |
| --- | --- | --- |
| O=C(NCC[C@@H]1[C@H]2CN(S(=O)(=O)c3ccc(F)cc3)C[C@@H]12)c1cc2ccncc2o1 [Example 72, N-(2-((1R,5S,6s)-3-((4-fluorophenyl)sulfonyl)-3-azabicyclo[3.1.0]hexan-6-yl)ethyl)furo[2,3-c]pyridine-2-carboxamide] | 0.01 to 0.49 µM |  |
| O=C(/C=C/c1cccnc1)NCC[C@@H]1[C@H]2CN(c3ccc4ccncc4c3)C[C@@H]12 [Example 141, (E)-N-(2-((1R,5S,6s)-3-(isoquinolin-7-yl)-3-azabicyclo[3.1.0]hexan-6-yl)ethyl)-3-(pyridin-3-yl)acrylamide] |  | < 0.01 µM |
| Nc1ccc(/C=C/C(=O)NCC[C@@H]2[C@H]3CN(C(=O)N4CCOCC4)C[C@@H]23)cn1 [Example 29, (E)-3-(6-aminopyridin-3-yl)-N-(2-((1R,5S,6s)-3-(morpholine-4-carbonyl)-3-azabicyclo[3.1.0]hexan-6-yl)ethyl)acrylamide] | 0.01 to 0.49 µM |  |
